# Patent US20180148418A1, “AMIDO-SUBSTITUTED CYCLOHEXANE DERIVATIVES” (Bayer Pharma Aktiengesellschaft, priority 2015, published 2018)
# Experiments:
# [1] = target: T1, TNKS2 (Homo sapiens, UniProt Q9H2K2); experiment: TNKS2 Assay B (auto-parsylation, [3H]-NAD+ SPA); type: biochemical; settings: 6 nM TNKS2, auto-parsylation, over night at room temperature
# T1 construct: purchased BPS Bioscience, San Diego, USA 80572 (TNKS2 Histone Ribosylation Assay Kit)
# T1 sequence (Q9H2K2 1-1166): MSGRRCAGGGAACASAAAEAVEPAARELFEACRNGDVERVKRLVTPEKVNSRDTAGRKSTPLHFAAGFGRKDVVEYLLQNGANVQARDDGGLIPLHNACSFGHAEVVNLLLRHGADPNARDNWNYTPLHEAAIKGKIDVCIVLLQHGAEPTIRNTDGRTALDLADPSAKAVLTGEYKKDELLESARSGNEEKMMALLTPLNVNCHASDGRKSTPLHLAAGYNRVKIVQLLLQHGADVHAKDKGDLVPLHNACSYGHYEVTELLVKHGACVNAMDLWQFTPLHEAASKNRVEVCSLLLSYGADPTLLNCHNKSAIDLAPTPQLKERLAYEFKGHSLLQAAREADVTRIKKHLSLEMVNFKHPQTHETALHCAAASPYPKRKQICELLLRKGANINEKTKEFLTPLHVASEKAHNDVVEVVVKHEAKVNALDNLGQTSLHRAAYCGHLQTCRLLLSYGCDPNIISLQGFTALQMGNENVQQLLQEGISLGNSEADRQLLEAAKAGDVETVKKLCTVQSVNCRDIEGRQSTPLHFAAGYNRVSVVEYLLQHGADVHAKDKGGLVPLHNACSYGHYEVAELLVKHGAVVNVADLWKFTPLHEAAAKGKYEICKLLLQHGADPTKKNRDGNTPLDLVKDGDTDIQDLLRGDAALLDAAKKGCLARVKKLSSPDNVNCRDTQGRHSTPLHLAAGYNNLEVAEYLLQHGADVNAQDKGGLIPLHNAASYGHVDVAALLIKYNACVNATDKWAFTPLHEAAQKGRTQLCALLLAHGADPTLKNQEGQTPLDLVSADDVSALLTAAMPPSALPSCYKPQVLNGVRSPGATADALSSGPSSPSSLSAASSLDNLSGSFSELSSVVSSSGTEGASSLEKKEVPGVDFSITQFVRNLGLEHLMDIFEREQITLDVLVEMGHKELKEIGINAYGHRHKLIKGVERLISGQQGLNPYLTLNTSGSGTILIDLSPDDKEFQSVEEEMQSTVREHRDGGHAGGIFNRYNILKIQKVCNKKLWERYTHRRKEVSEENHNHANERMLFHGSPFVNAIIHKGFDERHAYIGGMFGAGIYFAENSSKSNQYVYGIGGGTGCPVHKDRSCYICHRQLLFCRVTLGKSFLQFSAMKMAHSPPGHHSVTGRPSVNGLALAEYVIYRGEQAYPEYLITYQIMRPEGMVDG
# [2] = tested on: wildtype Wnt signaling cascade; experiment: HEK293 TOP assay (Super TopFlash luciferase reporter, Wnt-3a stimulated); type: cell-based; settings: Homo sapiens, HEK293, 16 h, HEK293 TOP reporter cells, Wnt3a at EC50, 16 hours
# Procedure, shortened: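 Compound series (50 μM down to 15 nM, 3.16-fold) diluted from DMSO 50-fold into CAFTY buffer, pH 7.4, 2 mM Ca^2+, 0.01% BSA, applied to Wnt-3a-stimulated HEK293 TopFlash and FOP reporter lines in parallel. Cells seeded 10000/well 24 h before; luciferase signal measured.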
IC50 [1] [nM],IC50 [2] [nM],SMILES
5.9,3.6,"O=C(N[C@H]1CC[C@@]2(CCN(c3ccccc3Cl)C2=O)CC1)c1cnc2cccnn12 [Example 271, N-[(trans)-2-(2-chlorophenyl)-1-oxo-2-azaspiro[4.5]dec-8-yl]imidazo[1,2-b]pyridazine-3-carboxamide]"
89,27,"CNC(=O)c1nc[nH]c1C(=O)N[C@H]1CC[C@@]2(CCN(c3cccc(Cl)c3)C2=O)CC1 [Example 276, N^5-[(trans)-2-(3-chlorophenyl)-1-oxo-2-azaspiro[4.5]dec-8-yl]-N^4-methyl-1H-imidazole-4,5-dicarboxamide]"
150,40,"CCNC(=O)c1nc[nH]c1C(=O)N[C@H]1CC[C@@]2(CCN(c3cccc(Cl)c3)C2=O)CC1 [Example 277, N^5-[(trans)-2-(3-chlorophenyl)-1-oxo-2-azaspiro[4.5]dec-8-yl]-N^4-ethyl-1H-imidazole-4,5-dicarboxamide]"
170,90,"CC(C)NC(=O)c1nc[nH]c1C(=O)N[C@H]1CC[C@@]2(CCN(c3cccc(Cl)c3)C2=O)CC1 [Example 278, N^5-[(trans)-2-(3-chlorophenyl)-1-oxo-2-azaspiro[4.5]dec-8-yl]-N^4-(propan-2-yl)-1H-imidazole-4,5-dicarboxamide]"
170,64,"O=C(NC1CC1)c1nc[nH]c1C(=O)N[C@H]1CC[C@@]2(CCN(c3cccc(Cl)c3)C2=O)CC1 [Example 279, N^5-[(trans)-2-(3-chlorophenyl)-1-oxo-2-azaspiro[4.5]dec-8-yl]-N^4-cyclopropyl-1H-imidazole-4,5-dicarboxamide]"
94,23,"O=C(N[C@H]1CC[C@@]2(CCN(c3cccc(Cl)c3)C2=O)CC1)c1[nH]cnc1C(=O)N1CC(F)C1 [Example 280, N-[(trans)-2-(3-chlorophenyl)-1-oxo-2-azaspiro[4.5]dec-8-yl]-4-[(3-fluoroazetidin-1-yl)carbonyl]-1H-imidazole-5-carboxamide]"
280,43,"O=C(NCC(F)(F)F)c1nc[nH]c1C(=O)N[C@H]1CC[C@@]2(CCN(c3cccc(Cl)c3)C2=O)CC1 [Example 281, N^5-[(trans)-2-(3-chlorophenyl)-1-oxo-2-azaspiro[4.5]dec-8-yl]-N^4-(2,2,2-trifluoroethyl)-1H-imidazole-4,5-dicarboxamide]"
160,41,"COCCNC(=O)c1nc[nH]c1C(=O)N[C@H]1CC[C@@]2(CCN(c3cccc(Cl)c3)C2=O)CC1 [Example 282, N^5-[(trans)-2-(3-chlorophenyl)-1-oxo-2-azaspiro[4.5]dec-8-yl]-N^4-(2-methoxyethyl)-1H-imidazole-4,5-dicarboxamide]"

# More lines, now with the values behind:
SMILES,IC50 [1] [nM],IC50 [2] [nM]
"Cc1cc(C)n2ncc(C(=O)N[C@H]3CC[C@@]4(CCN(c5cc(C)c(F)cc5Cl)C4=O)CC3)c2n1 [Example 266, N-[(trans)-2-(2-chloro-4-fluoro-5-methylphenyl)-1-oxo-2-azaspiro[4.5]dec-8-yl]-5,7-dimethylpyrazolo[1,5-a]pyrimidine-3-carboxamide]",6.8,6.6
"Cc1cc(N2CC[C@]3(CC[C@@H](NC(=O)c4cnn5cccnc45)CC3)C2=O)c(Cl)cc1F [Example 267, N-[(trans)-2-(2-chloro-4-fluoro-5-methylphenyl)-1-oxo-2-azaspiro[4.5]dec-8-yl]pyrazolo[1,5-a]pyrimidine-3-carboxamide]",5.2,3.2
"O=C(N[C@H]1CC[C@@]2(CCN(c3cccc(Cl)c3)C2=O)CC1)c1cnn2cccnc12 [Example 268, N-[(trans)-2-(3-chlorophenyl)-1-oxo-2-azaspiro[4.5]dec-8-yl]pyrazolo[1,5-a]pyrimidine-3-carboxamide]",230,76
"O=C(N[C@H]1CC[C@@]2(CCN(c3cccc(Cl)c3)C2=O)CC1)c1cnc2cccnn12 [Example 269, N-[(trans)-2-(3-chlorophenyl)-1-oxo-2-azaspiro[4.5]dec-8-yl]imidazo[1,2-b]pyridazine-3-carboxamide]",290,65
"Cc1cc(C)n2ncc(C(=O)N[C@H]3CC[C@@]4(CCN(c5cccc(Cl)c5)C4=O)CC3)c2n1 [Example 270, N-[(trans)-2-(3-chlorophenyl)-1-oxo-2-azaspiro[4.5]dec-8-yl]-5,7-dimethylpyrazolo[1,5-a]pyrimidine-3-carboxamide]",280,8.9
